{"source": "patent US12569463B2", "about": "“Method for treating diabetes” (Olatec Therapeutics, Inc., priority 2020, dated 2026)", "assay": "Fasting glucose in diabetic subjects of the clinical study of oral dapansutrile capsules in NYHA II-III systolic heart failure", "assay_type": "in vivo, human", "key": {"[1]": {"details": "Day 28, 1000 mg per day oral, N = 4"}, "[2]": {"details": "Day 28, 2000 mg per day oral, N = 4"}, "[3]": {"details": "Day 28, all dapansutrile subjects pooled, N = 14"}}}
{"smiles": "CS(=O)(=O)CCC#N", "note": "[Dapansutrile, 3-methanesulfonylpropionitrile]", "values": [{"measurement": "dose response of fasting glucose change (in words)", "setting": "500 mg, 1000 mg, 2000 mg per day", "result": "trend of dose response"}, {"measurement": "mean fast glucose level decrease from the baseline level", "setting": "2000 mg treatment, Day 14", "result": 43.5, "unit": "mg/dL"}, {"measurement": "Fasting Glucose Level, Change from Baseline, Mean", "setting": "Day 14 (last day of treatment), 500 mg daily oral, diabetic patients N = 6", "result": -20.0, "unit": "mg/dL"}, {"measurement": "Fasting Glucose Level, Change from Baseline, Median", "setting": "Day 14, 500 mg daily oral, N = 6", "result": -18.5, "unit": "mg/dL"}, {"measurement": "Fasting Glucose Level, Change from Baseline, Mean", "setting": "Day 14, 1000 mg per day (500 mg twice a day) oral, diabetic patients N = 4", "result": -16.5, "unit": "mg/dL"}, {"measurement": "Fasting Glucose Level, Change from Baseline, Median", "setting": "Day 14, 1000 mg per day oral, N = 4", "result": -16.5, "unit": "mg/dL"}, {"measurement": "Fasting Glucose Level, Change from Baseline, Mean", "setting": "Day 14, 2000 mg per day (500 mg 4 times a day) oral, diabetic patients N = 4", "result": -43.5, "unit": "mg/dL"}, {"measurement": "Fasting Glucose Level, Change from Baseline, Median", "setting": "Day 14, 2000 mg per day oral, N = 4", "result": -47.5, "unit": "mg/dL"}, {"measurement": "Fasting Glucose Level, Change from Baseline, Mean", "setting": "Day 14, all dapansutrile subjects pooled (500-2000 mg), N = 14", "result": -25.7, "unit": "mg/dL"}, {"measurement": "Fasting Glucose Level, Change from Baseline, Median", "setting": "Day 14, all dapansutrile subjects pooled, N = 14", "result": -32.5, "unit": "mg/dL"}, {"measurement": "decrease of glucose level from the baseline level (in words)", "setting": "Day 14, all dapansutrile-treated subjects, p value of 0.029", "result": "statistically significant decrease"}, {"measurement": "Fasting Glucose Level, Change from Baseline, Mean", "setting": "Day 28 (14 days after last treatment), 500 mg daily oral, N = 6", "result": 25.8, "unit": "mg/dL"}, {"measurement": "drug effect on fasting glucose (in words)", "setting": "Day 28, 14 days after the last treatment", "result": "the drug effect was gone"}, {"measurement": "Fasting Glucose Level, Change from Baseline, Median", "setting": "Day 28, 500 mg daily oral, N = 6", "result": -1.5, "unit": "mg/dL"}, {"measurement": "Fasting Glucose Level, Change from Baseline, Mean", "setting": "[1]", "result": 7.3, "unit": "mg/dL"}, {"measurement": "Fasting Glucose Level, Change from Baseline, Median", "setting": "[1]", "result": -7.0, "unit": "mg/dL"}, {"measurement": "Fasting Glucose Level, Change from Baseline, Mean", "setting": "[2]", "result": -18.0, "unit": "mg/dL"}, {"measurement": "Fasting Glucose Level, Change from Baseline, Median", "setting": "[2]", "result": -21.5, "unit": "mg/dL"}, {"measurement": "Fasting Glucose Level, Change from Baseline, Mean", "setting": "[3]", "result": 8.0, "unit": "mg/dL"}, {"measurement": "Fasting Glucose Level, Change from Baseline, Median", "setting": "[3]", "result": -8.0, "unit": "mg/dL"}]}
